Test results published in the METLIN SMRT retention time set (Domingo-Almenara et al. 2019).

Assay: gradient 5% acetonitrile 3 min, to 50% in 2 min, to 85% in 15 min, held 3 min, 100 µL/min
Settings: column: Zorbax Extend-C18 2.1 x 50 mm; eluents: water / acetonitrile, 0.1% formic acid
How it was run: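 Over 3 months, pure standards in mixtures of ~100 molecules were run by HPLC coupled to a quadrupole time-of-flight mass spectrometer in positive and negative ionization mode. The column was a Zorbax Extend-C18 (2.1 × 50 mm, 1.8 μm) at 100 μL/min, eluted with water and acetonitrile each holding 0.1% formic acid, with 40 μL dead and 900 μL dwell volumes. Retention time was determined from adduct peaks chosen by software and checked manually.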
For COCCNC(=O)Cc1ccc(NC(=O)c2ccc(Br)o2)cc1, the RP-LC retention time was 637 s.
In the case of CCOCCCNC(=O)C1CCCN(c2ccc(-c3ccc(C)c(C)c3)nn2)C1 (centres undefined), the RP-LC retention time is reported as 687 s.
With Cc1nc(NCCNC(=O)c2cccc(C(F)(F)F)c2)cc(N2CCOCC2)n1 the RP-LC retention time was 588 s.
For CCOc1cccc(-c2noc(CN3C(=O)C(C)Oc4ccccc43)n2)c1 (centres undefined), the RP-LC retention time was 1140 s.
In the case of CCC(=O)N1CCCCCNC(=O)[C@@H]2CCC[C@@H]21, the RP-LC retention time is reported as 621 s.
For CC(C)Sc1ccc(CC(=O)NCC2CCN(C(=O)NC(C)(C)C)CC2)cc1, the RP-LC retention time was 828 s.
Work on COc1ccc2c(ccn2CC(=O)N[C@@H](CC(C)C)C(=O)O)c1 yielded an RP-LC retention time of 756 s.
Work on CCc1cccc(C)c1Nc1c(-c2ccc(O)c(OC)c2)nc2ncccn12 yielded an RP-LC retention time of 686 s.
With Cc1cccc(NC(=O)CSc2nnc(C)s2)c1 the RP-LC retention time was 715 s.
Cc1cnc(C(=O)N2CC(c3nc(CCOC4CCCC4)no3)C2)cn1 gave an RP-LC retention time of 777 s.
In the case of COc1ccccc1CCc1nc(C2CC(=O)N(c3ccc(F)c(Cl)c3)C2)no1 (centres undefined), the RP-LC retention time is reported as 1110 s.
COc1ccc(OC)c(NC(=O)Cc2csc3nc(-c4cccc(Br)c4)cn23)c1 showed an RP-LC retention time of 1010 s.
Cc1oc(-c2ccc(NC(=O)c3ccc(Cl)s3)cc2)nc1Cn1cccn1 showed an RP-LC retention time of 980 s.
c1ccc2sc(N3CCN(Cc4ccc5c(c4)OCO5)CC3)nc2c1 showed an RP-LC retention time of 731 s.
In the case of COc1cccc(-n2cc(C(=O)OCc3cc(=O)n4ccccc4n3)c3ccccc3c2=O)c1, the RP-LC retention time is reported as 866 s.
Cc1ccc(-c2nc3n(CC(=O)NC4CC4)c4c(c(=O)n3n2)CCC4)cc1 gave an RP-LC retention time of 702 s.
Work on CC(C)c1noc(-c2ccc(-n3cnc(C(=O)NC(C)c4ccc(F)cc4)c3)nc2)n1 (centres undefined) yielded an RP-LC retention time of 1020 s.
With CC(C)n1cnc2cc(CNC(=O)CCc3ccccc3)ccc21 the RP-LC retention time was 631 s.
CCCc1nnc(NC(=O)C2CCN(C(=O)c3ccc(F)cc3)CC2)s1 gave an RP-LC retention time of 721 s.
In the case of CNC(=O)c1cc(C(=O)c2ccc3nc(Nc4ccc(Cl)cc4)[nH]c3c2)ccn1, the RP-LC retention time is reported as 669 s.
In the case of O=C(Cn1c(=O)cc(C(=O)N2CCCC2)c2ccccc21)Nc1ccccc1Cl, the RP-LC retention time is reported as 714 s.
COCCCNc1c(-c2ccc(C)cc2)nc2sc(C(N)=O)c(C)n12 gave an RP-LC retention time of 705 s.
CCCCS(=O)(=O)c1cc2c(cc1NC(=O)c1ccccc1Br)n(C)c(=O)n2C gave an RP-LC retention time of 896 s.
For COc1cccc(-c2nc3ccccc3n2CC(=O)N2CCC(C)CC2)c1, the RP-LC retention time was 668 s.
CC(C)NC(=O)N1CCCC(c2cccc(C(=O)NCCC3=CCCCC3)c2)C1 (centres undefined) showed an RP-LC retention time of 977 s.
Compound Cc1cccc(C)c1NC(=O)Cn1nc(N2CCSCC2)c2ccccc2c1=O has an RP-LC retention time of 892 s.
In the case of COc1cc(OC)cc(-c2nc(-c3cccc(-c4ccn[nH]4)c3)no2)c1, the RP-LC retention time is reported as 1010 s.
For COc1ccc(C(=O)Nc2ccc3c(c2)Sc2ncccc2C(=O)N3C)c(OC)c1, the RP-LC retention time was 706 s.
Compound COc1ncccc1CNC(=O)c1cc(Cl)ccc1F has an RP-LC retention time of 1180 s.
Compound CCN1c2ccc(F)cc2C(=O)NC12CCN(C(=O)Cc1ccc(Cl)cc1)CC2 has an RP-LC retention time of 848 s.
For O=C(C1=CN(c2cc(F)cc(F)c2)c2ccccc2S1(=O)=O)N1CCCCC1, the RP-LC retention time was 873 s.
For CCCOc1nc2ccccc2nc1N1CCCC(C(=O)NCc2ccccc2Cl)C1 (centres undefined), the RP-LC retention time was 1270 s.
With Cc1nc(-c2ccc(N3CCN(C(=O)COc4ccc(Cl)cc4)CC3)nc2)sc1C the RP-LC retention time was 949 s.
COc1cccc(N2CCN(C(=O)C3CCN(c4cnc5nccnc5c4)CC3)CC2)c1 gave an RP-LC retention time of 728 s.
With Fc1ccccc1N1CCN(c2ncccc2-c2nnc(-c3ccccc3)o2)CC1 the RP-LC retention time was 1150 s.
COc1ccc(NC(=O)Cn2nc3cc(-c4ccccc4)nc(C)n3c2=O)cc1F showed an RP-LC retention time of 914 s.
O=C(Cn1nc(Cc2ccncc2)c2ccccc2c1=O)N1CCN(C(=O)c2ccco2)CC1 gave an RP-LC retention time of 582 s.
With COc1ccc(C(=O)N2CCC3(CC2)NC(=O)c2cc(Cl)ccc2N3C)cc1OC the RP-LC retention time was 742 s.
Compound Cc1ccc(S(=O)(=O)N2CCOCC2)cc1-c1nnc(-c2ccc(Cl)cc2)o1 has an RP-LC retention time of 1030 s.
CCc1nc2cc(N3CCC(C(=O)NCc4ccc5c(c4)OCO5)CC3)cnc2nc1CC gave an RP-LC retention time of 799 s.
With Cc1cccc(Nc2nc(CC(=O)N3CCC(C(N)=O)CC3)cs2)n1 the RP-LC retention time was 539 s.
O=C1CCC(c2nc(-c3ccc4c(c3)OCO4)no2)=NN1Cc1ccccc1 gave an RP-LC retention time of 1050 s.
For CCCN(CC1CCOC1)C(=O)Nc1cccc(CC)c1 (centres undefined), the RP-LC retention time was 864 s.
Work on CCOc1ccc(S(=O)(=O)N2CCCC(C(=O)Nc3ccc(S(N)(=O)=O)cc3)C2)cc1C (centres undefined) yielded an RP-LC retention time of 876 s.
Work on Cc1ccc(-c2ccc(-n3nc(C)c(S(=O)(=O)NCCC(C)C)c3C)nn2)cc1 yielded an RP-LC retention time of 1210 s.
Work on CN1CCN(C(=O)C2CCN(S(=O)(=O)c3cc(-c4noc(C5CC5)n4)cs3)CC2)CC1 yielded an RP-LC retention time of 643 s.
Cc1ccn2cc(C(=O)NCCC(C)C)nc2c1 gave an RP-LC retention time of 640 s.
In the case of CN1CCN(CCNC(=O)CCc2c(-c3ccc(Br)cc3)nc3ccccn23)CC1, the RP-LC retention time is reported as 543 s.
In the case of Cc1nn(-c2ccccc2)c(C)c1S(=O)(=O)N1CCC(C(=O)N2c3ccccc3CC2C)CC1 (centres undefined), the RP-LC retention time is reported as 1060 s.
With COCCC(=O)N1CCN(c2ncccc2-c2nnc(C(C)C)o2)CC1 the RP-LC retention time was 666 s.
In the case of CCOC(=O)N1CCN(S(=O)(=O)c2ccc(C(=O)Nc3nnc(C4CC4)o3)cc2)CC1, the RP-LC retention time is reported as 661 s.
With CCCOc1nc2ccccc2nc1N1CCCC(C(=O)NCc2ccco2)C1 (centres undefined) the RP-LC retention time was 1100 s.
C[C@@H]1CCNC(=O)c2cc3ccc(C(=O)Nc4nc5ccccc5n4CCCN(C)C)cc3n21 gave an RP-LC retention time of 642 s.
In the case of CCCNC(=O)c1ccc2cnn(C)c2c1, the RP-LC retention time is reported as 673 s.
CCNC(=O)C1CCN(S(=O)(=O)c2cc(C(=O)N3CCCCCC3)cs2)CC1 gave an RP-LC retention time of 717 s.
For COCCNC(=O)c1nc2cccnc2n(C)c1=O, the RP-LC retention time was 585 s.
For Ic1cccc(/C=N/Nc2nc(N3CCOCC3)nc(N(c3ccccc3)c3ccccc3)n2)c1, the RP-LC retention time was 1140 s.
Compound Cc1cccc(CS(=O)(=O)NCCCN2CCN(c3ccccc3)CC2)c1 has an RP-LC retention time of 588 s.
CCOc1ccc(Nc2c(-c3cccc(O)c3)nc3cnccn23)cc1 gave an RP-LC retention time of 746 s.
With COc1ccccc1NC(=O)c1sc(-c2cn(C)c3ncccc23)nc1C the RP-LC retention time was 1060 s.
For Cc1noc(-c2cccc(OC3CN(C(=O)c4cnn(C)c4)C3)c2)n1, the RP-LC retention time was 700 s.
Work on CCN1C(=O)CCc2cc(NS(=O)(=O)c3cccc4cccnc34)ccc21 yielded an RP-LC retention time of 758 s.
With O=S(=O)(NCc1nc(-c2ccc(NS(=O)(=O)c3ccccc3)cc2)no1)c1ccccc1 the RP-LC retention time was 877 s.
For CN(CCNC(=O)C1CCCN(c2ncnc3c2nc2n3CCCCC2)C1)C1CCCCC1 (centres undefined), the RP-LC retention time was 612 s.
Compound O=C1CCN(CC2CCCCC2)CCCC(c2nc(-c3cnccn3)no2)CCN1 (centres undefined) has an RP-LC retention time of 619 s.
Cc1c(C(=O)NCC(C)C)cnn1-c1ccc(-c2nc(C(C)C)no2)cn1 gave an RP-LC retention time of 1050 s.
COCCN1C(=O)Cc2ccccc2C1C(=O)N1CCCCC1 (centres undefined) gave an RP-LC retention time of 725 s.
Work on O=C(Nc1ccc(F)cc1)c1nnc(CSCC(=O)N2CCN(c3ccccn3)CC2)s1 yielded an RP-LC retention time of 657 s.
Work on COc1ccc(CN2CC3(CCN(S(=O)(=O)c4ccccc4Cl)CC3)C2=O)cc1 yielded an RP-LC retention time of 913 s.
COc1ccccc1NC(=O)C12CCC(C)(C(=O)C1)C2(C)C (centres undefined) showed an RP-LC retention time of 848 s.
Work on Cc1cccc2c(=O)n(C3CCN(S(=O)(=O)c4ccccc4F)CC3)cnc12 yielded an RP-LC retention time of 940 s.
COC(=O)c1cc(OCC(=O)Nc2cccc(OC)c2)c2ccccc2n1 gave an RP-LC retention time of 779 s.
N#Cc1ccc(C(=O)NCC(=O)N2CCCc3ccccc32)cc1 showed an RP-LC retention time of 773 s.
Work on CNC(=O)c1c(NC(=O)C2COc3ccccc3O2)sc2c1CCCC2 (centres undefined) yielded an RP-LC retention time of 1030 s.
In the case of Cc1cccc(-c2nocc2CCC(=O)O)c1, the RP-LC retention time is reported as 758 s.
Work on CCN1CCN(CCCNC(=O)Cn2cnc3nc4c(cc3c2=O)CCCC4)CC1 yielded an RP-LC retention time of 554 s.
Cn1nccc1C(=O)N1CCN(C(=O)c2cc(-c3ccncc3)n[nH]2)CC1 showed an RP-LC retention time of 523 s.
Compound Cc1ccn2cc(-c3ccc(NS(=O)(=O)c4ccc5nc(C)sc5c4)cc3)nc2n1 has an RP-LC retention time of 641 s.
COC(=O)CC(=O)Nc1cc2c(cc1N1CCCC1)n(C)c(=O)n2C showed an RP-LC retention time of 565 s.
With Cc1nc(-c2nnc(NC(=O)C3CCN(S(C)(=O)=O)CC3)o2)cs1 the RP-LC retention time was 572 s.
Compound Cc1ccc(N2CCC(NC(=O)c3ccc(Br)o3)C2=O)cc1C (centres undefined) has an RP-LC retention time of 882 s.
CCc1ccc(-n2ncc3c(=O)n(Cc4nc(-c5cccc(C)c5)no4)cnc32)cc1 showed an RP-LC retention time of 1210 s.
With COc1ccc(-c2cc(N3CCC(NC(=O)C4(c5ccccc5)CC4)CC3)n[nH]2)cc1 the RP-LC retention time was 817 s.
Compound Cc1cc(-c2nnc(-c3ccc(F)cc3)o2)c(C)n1CC(=O)NCc1ccccc1F has an RP-LC retention time of 950 s.
For Cc1ccc(NC(=O)N2CCC(n3cnc4c(C)cccc4c3=O)CC2)cc1C, the RP-LC retention time was 872 s.
Compound CCOC(=O)CCC(=O)N1CCN(Cc2nc(C(C)(C)C)cs2)CC1 has an RP-LC retention time of 611 s.
Compound O=C(N[C@@H]1CN(c2ncccn2)C[C@H]1CO)c1ccc2c(c1)OCO2 has an RP-LC retention time of 606 s.
Cc1ccn2cc(CCNC(=O)c3ccc(C(F)(F)F)cc3)nc2c1 showed an RP-LC retention time of 580 s.
With O=C(CCn1c(=O)c2cccn2c2cccnc21)N1CCN(c2ccccn2)CC1 the RP-LC retention time was 584 s.
